Measured values as given in patent US10392422B2, “Macrocyclic broad spectrum antibiotics” (priority 2014, dated 2019).

Key:
[1] = tested on: Escherichia coli MC4100 harboring the IMP4213; assay: MIC, broth micro-dilution technique (CLSI); format: cell-based; conditions: Table 1 protocol: serial 2-fold dilutions starting from 64 μg/ml; 35° C., 22 hours
Method in brief: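 Susceptibility is tested by broth micro-dilution per CLSI, using ten serial 2-fold dilutions beginning at 64 μg/ml or, in a modified version, 4 μg/mL. The E. coli MC4100 strain carries an imp allele raising outer-membrane permeability.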

[2] = tested on: Methicillin Resistant Staphylococcus aureus strain USA 300 (NRS384); assay: MIC, broth micro-dilution technique (CLSI); format: cell-based; conditions: Table 1 protocol: serial 2-fold dilutions starting from 64 μg/ml; 35° C., 22 hours
Method in brief: (§1)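 CLSI broth microdilution in cation-adjusted Mueller Hinton broth with 0.002% v/v Tween-80. Compounds were serially 2-fold diluted over 10 concentrations from 64 μg/ml, or from 4 μg/mL in a modified protocol; inoculum at final OD600 0.0005, incubated 35° C for 22 hours.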

MRSA COL (NRS100) = assay: MIC, broth micro-dilution technique (CLSI); format: cell-based, Staphylococcus aureus; conditions: Table 1 protocol: serial 2-fold dilutions starting from 64 μg/ml; 35° C., 22 hours
Method in brief: as §1

MRSA strain USA300 = assay: SIC determination with partner beta-lactam antibiotics; format: cell-based, Staphylococcus aureus
Method: Many compounds in the Examples, including Compound 155, synergize with a wide range of beta-lactam antibiotics as quantified by SIC determination, where the SIC is measured and defined in a manner identical to the MIC, […] being tested.

Compound: CCCCCCCCCCNCCC(=O)N[C@@H](CCCCN)C(=O)N(C)[C@@H]1C(=O)N[C@@H](C)C(=O)N[C@H](C(=O)N[C@@H](C)C(=O)N2CCC[C@H]2C(N)=O)Cc2ccc(O)c(c2)-c2cc1ccc2O.O=CO [Compound 155]
- MIC (μg/mL) E. coli [1]: 64 µg/mL
- MIC (μg/mL) S. aureus [2]: 2.8 µg/mL
- MIC (μg/mL) (COL) (MRSA COL (NRS100)): 1.3 µg/mL
- Compound 155 SIC (MRSA strain USA300; MRSA strain USA300, media contains partner beta-lactam Amoxicillin/Clav at 1/4x its MIC): 0.25 µg/mL
- Compound 155 SIC (MRSA strain USA300; MRSA strain USA300, media contains partner beta-lactam Ampicillin at 1/4x its MIC): 1 µg/mL
- Compound 155 SIC (MRSA strain USA300; MRSA strain USA300, media contains partner beta-lactam Azlocillin at 1/4x its MIC): 1 µg/mL
- Compound 155 SIC (MRSA strain USA300; MRSA strain USA300, media contains partner beta-lactam Biapenem at 1/4x its MIC): 0.0625 µg/mL
- Compound 155 SIC (MRSA strain USA300; MRSA strain USA300, media contains partner beta-lactam Carbenicillin at 1/4x its MIC): 0.5 µg/mL
- Compound 155 SIC (MRSA strain USA300; MRSA strain USA300, media contains partner beta-lactam Cefaclor at 1/4x its MIC): 0.25 µg/mL
- Compound 155 SIC (MRSA strain USA300; MRSA strain USA300, media contains partner beta-lactam Cefamandole at 1/4x its MIC): 0.25 µg/mL
- Compound 155 SIC (MRSA strain USA300; MRSA strain USA300, media contains partner beta-lactam Cefazolin at 1/4x its MIC): 0.125 µg/mL
- Compound 155 SIC (MRSA strain USA300; MRSA strain USA300, media contains partner beta-lactam Cefdinir at 1/4x its MIC): ≤0.0156 µg/mL
- Compound 155 SIC (MRSA strain USA300; MRSA strain USA300, media contains partner beta-lactam Cefepime at 1/4x its MIC): 0.125 µg/mL
- Compound 155 SIC (MRSA strain USA300; MRSA strain USA300, media contains partner beta-lactam Cefixime at 1/4x its MIC): 0.25 µg/mL
- Compound 155 SIC (MRSA strain USA300; MRSA strain USA300, media contains partner beta-lactam Cefmetazole at 1/4x its MIC): 0.5 µg/mL
- Compound 155 SIC (MRSA strain USA300; MRSA strain USA300, media contains partner beta-lactam Cefonicid at 1/4x its MIC): 0.25 µg/mL
- Compound 155 SIC (MRSA strain USA300; MRSA strain USA300, media contains partner beta-lactam Cefotaxime at 1/4x its MIC): 0.125 µg/mL
- Compound 155 SIC (MRSA strain USA300; MRSA strain USA300, media contains partner beta-lactam Cefotetan at 1/4x its MIC): 0.5 µg/mL
- Compound 155 SIC (MRSA strain USA300; MRSA strain USA300, media contains partner beta-lactam Cefoxitin at 1/4x its MIC): 0.25 µg/mL
- Compound 155 SIC (MRSA strain USA300; MRSA strain USA300, media contains partner beta-lactam Cefpodoxime at 1/4x its MIC): 0.125 µg/mL
- Compound 155 SIC (MRSA strain USA300; MRSA strain USA300, media contains partner beta-lactam Cefprozil at 1/4x its MIC): 0.25 µg/mL
- Compound 155 SIC (MRSA strain USA300; MRSA strain USA300, media contains partner beta-lactam Ceftazidime at 1/4x its MIC): 0.5 µg/mL
- Compound 155 SIC (MRSA strain USA300; MRSA strain USA300, media contains partner beta-lactam Ceftizoxime at 1/4x its MIC): 0.25 µg/mL
- Compound 155 SIC (MRSA strain USA300; MRSA strain USA300, media contains partner beta-lactam Ceftriaxone at 1/4x its MIC): 0.0625 µg/mL
- Compound 155 SIC (MRSA strain USA300; MRSA strain USA300, media contains partner beta-lactam Cephalothin at 1/4x its MIC): 0.0625 µg/mL
- Compound 155 SIC (MRSA strain USA300; MRSA strain USA300, media contains partner beta-lactam Doripenem at 1/4x its MIC): 0.125 µg/mL
- Compound 155 SIC (MRSA strain USA300; MRSA strain USA300, media contains partner beta-lactam Ertapenem at 1/4x its MIC): 0.25 µg/mL
- Compound 155 SIC (MRSA strain USA300; MRSA strain USA300, media contains partner beta-lactam Faropenem at 1/4x its MIC): ≤0.0156 µg/mL
- Compound 155 SIC (MRSA strain USA300; MRSA strain USA300, media contains partner beta-lactam Imipenem at 1/4x its MIC): 0.125 µg/mL
- Compound 155 SIC (MRSA strain USA300; MRSA strain USA300, media contains partner beta-lactam Mecillinam at 1/4x its MIC): 1 µg/mL
- Compound 155 SIC (MRSA strain USA300; MRSA strain USA300, media contains partner beta-lactam Meropenem at 1/4x its MIC): 0.25 µg/mL
- Compound 155 SIC (MRSA strain USA300; MRSA strain USA300, media contains partner beta-lactam Methicillin at 1/4x its MIC): 0.25 µg/mL
- Compound 155 SIC (MRSA strain USA300; MRSA strain USA300, media contains partner beta-lactam Mezlocillin at 1/4x its MIC): 0.5 µg/mL
- Compound 155 SIC (MRSA strain USA300; MRSA strain USA300, media contains partner beta-lactam Moxalactam at 1/4x its MIC): 0.125 µg/mL
- Compound 155 SIC (MRSA strain USA300; MRSA strain USA300, media contains partner beta-lactam Oxacillin at 1/4x its MIC): 0.125 µg/mL
- Compound 155 SIC (MRSA strain USA300; MRSA strain USA300, media contains partner beta-lactam Piperacillin/tazobactam at 1/4x its MIC): 0.5 µg/mL
- Compound 155 SIC (MRSA strain USA300; MRSA strain USA300, media contains partner beta-lactam Ticarcillin at 1/4x its MIC): 0.125 µg/mL
- Fold reduction in Compound 155 MIC (MRSA strain USA300; MRSA strain USA300, partner beta-lactam Amoxicillin/Clav at 1/4x its MIC): 16
- Fold reduction in Compound 155 MIC (MRSA strain USA300; MRSA strain USA300, partner beta-lactam Ampicillin at 1/4x its MIC): 4
- Fold reduction in Compound 155 MIC (MRSA strain USA300; MRSA strain USA300, partner beta-lactam Azlocillin at 1/4x its MIC): 4
- Fold reduction in Compound 155 MIC (MRSA strain USA300; MRSA strain USA300, partner beta-lactam Biapenem at 1/4x its MIC): 64
- Fold reduction in Compound 155 MIC (MRSA strain USA300; MRSA strain USA300, partner beta-lactam Carbenicillin at 1/4x its MIC): 8
- Fold reduction in Compound 155 MIC (MRSA strain USA300; MRSA strain USA300, partner beta-lactam Cefaclor at 1/4x its MIC): 16
- Fold reduction in Compound 155 MIC (MRSA strain USA300; MRSA strain USA300, partner beta-lactam Cefamandole at 1/4x its MIC): 16
- Fold reduction in Compound 155 MIC (MRSA strain USA300; MRSA strain USA300, partner beta-lactam Cefazolin at 1/4x its MIC): 32
- Fold reduction in Compound 155 MIC (MRSA strain USA300; MRSA strain USA300, partner beta-lactam Cefdinir at 1/4x its MIC): >256
- Fold reduction in Compound 155 MIC (MRSA strain USA300; MRSA strain USA300, partner beta-lactam Cefepime at 1/4x its MIC): 32
- Fold reduction in Compound 155 MIC (MRSA strain USA300; MRSA strain USA300, partner beta-lactam Cefixime at 1/4x its MIC): 16
- Fold reduction in Compound 155 MIC (MRSA strain USA300; MRSA strain USA300, partner beta-lactam Cefmetazole at 1/4x its MIC): 8
- Fold reduction in Compound 155 MIC (MRSA strain USA300; MRSA strain USA300, partner beta-lactam Cefonicid at 1/4x its MIC): 16
- Fold reduction in Compound 155 MIC (MRSA strain USA300; MRSA strain USA300, partner beta-lactam Cefotaxime at 1/4x its MIC): 32
- Fold reduction in Compound 155 MIC (MRSA strain USA300; MRSA strain USA300, partner beta-lactam Cefotetan at 1/4x its MIC): 8
- Fold reduction in Compound 155 MIC (MRSA strain USA300; MRSA strain USA300, partner beta-lactam Cefoxitin at 1/4x its MIC): 16
- Fold reduction in Compound 155 MIC (MRSA strain USA300; MRSA strain USA300, partner beta-lactam Cefpodoxime at 1/4x its MIC): 32
- Fold reduction in Compound 155 MIC (MRSA strain USA300; MRSA strain USA300, partner beta-lactam Cefprozil at 1/4x its MIC): 16
- Fold reduction in Compound 155 MIC (MRSA strain USA300; MRSA strain USA300, partner beta-lactam Ceftazidime at 1/4x its MIC): 8
- Fold reduction in Compound 155 MIC (MRSA strain USA300; MRSA strain USA300, partner beta-lactam Ceftizoxime at 1/4x its MIC): 16
- Fold reduction in Compound 155 MIC (MRSA strain USA300; MRSA strain USA300, partner beta-lactam Ceftriaxone at 1/4x its MIC): 64
- Fold reduction in Compound 155 MIC (MRSA strain USA300; MRSA strain USA300, partner beta-lactam Cephalothin at 1/4x its MIC): 64
- Fold reduction in Compound 155 MIC (MRSA strain USA300; MRSA strain USA300, partner beta-lactam Doripenem at 1/4x its MIC): 32
- Fold reduction in Compound 155 MIC (MRSA strain USA300; MRSA strain USA300, partner beta-lactam Ertapenem at 1/4x its MIC): 16
- Fold reduction in Compound 155 MIC (MRSA strain USA300; MRSA strain USA300, partner beta-lactam Faropenem at 1/4x its MIC): >256
- Fold reduction in Compound 155 MIC (MRSA strain USA300; MRSA strain USA300, partner beta-lactam Imipenem at 1/4x its MIC): 32
- Fold reduction in Compound 155 MIC (MRSA strain USA300; MRSA strain USA300, partner beta-lactam Mecillinam at 1/4x its MIC): 4
- Fold reduction in Compound 155 MIC (MRSA strain USA300; MRSA strain USA300, partner beta-lactam Meropenem at 1/4x its MIC): 16
- Fold reduction in Compound 155 MIC (MRSA strain USA300; MRSA strain USA300, partner beta-lactam Methicillin at 1/4x its MIC): 16
- Fold reduction in Compound 155 MIC (MRSA strain USA300; MRSA strain USA300, partner beta-lactam Mezlocillin at 1/4x its MIC): 8
- Fold reduction in Compound 155 MIC (MRSA strain USA300; MRSA strain USA300, partner beta-lactam Moxalactam at 1/4x its MIC): 32
- Fold reduction in Compound 155 MIC (MRSA strain USA300; MRSA strain USA300, partner beta-lactam Oxacillin at 1/4x its MIC): 32
- Fold reduction in Compound 155 MIC (MRSA strain USA300; MRSA strain USA300, partner beta-lactam Piperacillin/tazobactam at 1/4x its MIC): 8
- Fold reduction in Compound 155 MIC (MRSA strain USA300; MRSA strain USA300, partner beta-lactam Ticarcillin at 1/4x its MIC): 32
- Compound 155 MIC (MRSA strain USA300; MRSA strain USA300, partner beta-lactam: None): 4 µg/mL
- synergy with beta-lactam antibiotics as quantified by SIC determination (MRSA strain USA300; SIC less than or equal to 1/4 MIC means sum of the FICs ≤0.5, indicating synergy): synergize
